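These data come from cells grown in 96-well plates and exposed to compound for 48 hours at five concentrations. At the GI50, growth is halved.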 Calls of active or inactive are those of the source. No stated cut-off is given here; in the data, active = GI50 up to about 1.1 µM and inactive = higher.
Columns and labels:
Test in all cases: NCI tumour cell line growth inhibition, 48 h
[1] = system: TK-10
[2] = system: MOLT-4
[3] = system: HCT-116
[4] = system: UACC-257
[5] = system: IGROV-1
[6] = system: 786-0
[7] = system: HCT-15
[8] = system: SNB-75
[9] = system: SW-620
[10] = system: HOP-92
[11] = system: HL-60
[12] = system: SF-539
[13] = system: LOX IMVI
[14] = system: U-251
[15] = system: HOP-62
[16] = system: A498
[17] = system: KM12
[18] = system: SR

Structure (SMILES): CN(C)CCNC(=O)c1cccc2[nH]c(-c3ccccc3)nc12
- GI50 [1]: 18.5 µM (inactive)
- GI50 [2]: 4.91 µM (inactive)
- GI50 [3]: 9.73 µM (inactive)
- GI50 [4]: 16.9 µM (inactive)
- GI50 [5]: 21.7 µM (inactive)
- GI50 [6]: 36.3 µM (inactive)
- GI50 [7]: 15.8 µM
- GI50 [8]: 37.8 µM (inactive)
- GI50 [9]: 13.1 µM (inactive)
- GI50 [10]: 20.3 µM (inactive)
- GI50 [11]: 21.7 µM (inactive)
- GI50 [12]: 12.2 µM (inactive)
- GI50 [13]: 15.6 µM (inactive)
- GI50 [14]: 25.4 µM (inactive)
- GI50 [15]: 22.3 µM (inactive)
- GI50 [16]: 13.1 µM (inactive)
- GI50 [17]: 22.4 µM (inactive)

Structure (SMILES): COC(=O)CC(CC(=O)C(=O)OC)C(=O)OC (centres undefined)
- GI50 [1]: > 100 µM (inactive)
- GI50 [2]: > 100 µM (inactive)
- GI50 [3]: > 100 µM (inactive)
- GI50 [4]: > 100 µM (inactive)
- GI50 [5]: > 100 µM (inactive)
- GI50 [6]: > 100 µM (inactive)
- GI50 [7]: > 100 µM
- GI50 [8]: > 100 µM (inactive)
- GI50 [9]: > 100 µM (inactive)
- GI50 [10]: > 100 µM (inactive)
- GI50 [11]: > 100 µM (inactive)
- GI50 [12]: > 100 µM (inactive)
- GI50 [13]: > 100 µM (inactive)
- GI50 [14]: > 100 µM (inactive)
- GI50 [15]: > 100 µM (inactive)
- GI50 [16]: > 100 µM (inactive)
- GI50 [17]: > 100 µM (inactive)

Structure (SMILES): COc1ccc2c(c1)[n+]([O-])c(-c1ccccc1)c(N)[n+]2[O-]
- GI50 [1]: > 100 µM (inactive)
- GI50 [2]: 71.3 µM (inactive)
- GI50 [4]: 21.2 µM (inactive)
- GI50 [5]: 43.4 µM (inactive)
- GI50 [6]: 63.2 µM (inactive)
- GI50 [7]: 35.3 µM
- GI50 [8]: > 100 µM (inactive)
- GI50 [9]: 39.3 µM (inactive)
- GI50 [11]: 41.6 µM (inactive)
- GI50 [12]: 32.4 µM (inactive)
- GI50 [13]: 44.1 µM (inactive)
- GI50 [14]: 31.3 µM (inactive)
- GI50 [15]: 39 µM (inactive)
- GI50 [16]: 69.3 µM (inactive)
- GI50 [17]: 63.4 µM (inactive)

Structure (SMILES): CN(C(=N)c1ccccc1)c1ccccc1
- GI50 [1]: > 100 µM (inactive)
- GI50 [2]: > 100 µM (inactive)
- GI50 [3]: > 100 µM (inactive)
- GI50 [5]: > 100 µM (inactive)
- GI50 [6]: > 100 µM (inactive)
- GI50 [7]: > 100 µM
- GI50 [8]: 47.6 µM (inactive)
- GI50 [9]: > 100 µM (inactive)
- GI50 [10]: 51.5 µM (inactive)
- GI50 [11]: > 100 µM (inactive)
- GI50 [12]: > 100 µM (inactive)
- GI50 [13]: 84.7 µM (inactive)
- GI50 [14]: > 100 µM (inactive)
- GI50 [16]: > 10 µM (inactive)
- GI50 [17]: > 100 µM (inactive)

Structure (SMILES): Cc1ccc(-c2c(N)[n+]([O-])c3ccccc3[n+]2[O-])cc1
- GI50 [1]: 18.4 µM (inactive)
- GI50 [2]: 45.2 µM (inactive)
- GI50 [4]: 7.21 µM (inactive)
- GI50 [5]: 14.9 µM (inactive)
- GI50 [6]: 13.5 µM (inactive)
- GI50 [7]: 3.42 µM
- GI50 [8]: 12.2 µM (inactive)
- GI50 [9]: 5.25 µM (inactive)
- GI50 [10]: > 100 µM (inactive)
- GI50 [11]: 9.95 µM (inactive)
- GI50 [12]: 11 µM (inactive)
- GI50 [13]: 11 µM (inactive)
- GI50 [14]: 14.3 µM (inactive)
- GI50 [15]: 17.1 µM (inactive)
- GI50 [16]: > 10 µM (inactive)
- GI50 [17]: 11.9 µM (inactive)

Structure (SMILES): Nc1ccc2ncc(Nc3ccc(Cl)c(Cl)c3)nc2c1
- GI50 [1]: 70.6 µM (inactive)
- GI50 [2]: 17.7 µM (inactive)
- GI50 [3]: 21.2 µM (inactive)
- GI50 [18]: 57.7 µM (inactive)
- GI50 [4]: 19.4 µM (inactive)
- GI50 [6]: 39.6 µM (inactive)
- GI50 [7]: 34 µM
- GI50 [8]: 16 µM (inactive)
- GI50 [9]: 35.2 µM (inactive)
- GI50 [10]: 13.6 µM (inactive)
- GI50 [11]: 14.5 µM (inactive)
- GI50 [12]: 17.3 µM (inactive)
- GI50 [13]: 21.6 µM (inactive)
- GI50 [14]: 33.7 µM (inactive)
- GI50 [15]: 42.3 µM (inactive)
- GI50 [17]: 25.9 µM (inactive)

Structure (SMILES): Fc1ccccc1C1CC(C(c2ccccc2)c2ccccc2)=Nc2ccccc2S1 (centres undefined)
- GI50 [1]: 10.7 µM (inactive)
- GI50 [2]: 2.71 µM (inactive)
- GI50 [4]: 12.9 µM (inactive)
- GI50 [5]: 6.95 µM (inactive)
- GI50 [6]: 4.23 µM (inactive)
- GI50 [7]: 5.78 µM
- GI50 [8]: 1.13 µM (inactive)
- GI50 [9]: 6.04 µM (inactive)
- GI50 [11]: 2.55 µM (inactive)
- GI50 [12]: 21.9 µM (inactive)
- GI50 [13]: 5.78 µM (inactive)
- GI50 [14]: 12.6 µM (inactive)
- GI50 [15]: 12.6 µM (inactive)
- GI50 [16]: 6.53 µM (inactive)
- GI50 [17]: 5.38 µM (inactive)

Structure (SMILES): NC(=O)NNC/C(Cl)=C(\Cl)C(=O)O
- GI50 [1]: > 100 µM (inactive)
- GI50 [2]: > 100 µM (inactive)
- GI50 [3]: > 100 µM (inactive)
- GI50 [4]: > 82.6 µM (inactive)
- GI50 [5]: > 100 µM (inactive)
- GI50 [6]: > 100 µM (inactive)
- GI50 [7]: > 100 µM
- GI50 [8]: < 0.01 µM (active)
- GI50 [9]: > 100 µM (inactive)
- GI50 [11]: > 100 µM (inactive)
- GI50 [12]: > 100 µM (inactive)
- GI50 [13]: > 100 µM (inactive)
- GI50 [14]: > 100 µM (inactive)
- GI50 [15]: > 100 µM (inactive)
- GI50 [16]: > 100 µM (inactive)
- GI50 [17]: > 100 µM (inactive)

Structure (SMILES): CC(=O)c1c(O)ccc2c1CC(CC=O)O2 (centres undefined)
- GI50 [1]: > 100 µM (inactive)
- GI50 [2]: > 100 µM (inactive)
- GI50 [3]: 19.7 µM (inactive)
- GI50 [18]: > 100 µM (inactive)
- GI50 [4]: > 100 µM (inactive)
- GI50 [5]: > 100 µM (inactive)
- GI50 [6]: 69.7 µM (inactive)
- GI50 [7]: 52.6 µM
- GI50 [8]: 42.1 µM (inactive)
- GI50 [9]: 43.9 µM (inactive)
- GI50 [10]: 34.3 µM (inactive)
- GI50 [11]: > 100 µM (inactive)
- GI50 [12]: 50 µM (inactive)
- GI50 [13]: 19.9 µM (inactive)
- GI50 [14]: 83.9 µM (inactive)
- GI50 [15]: > 100 µM (inactive)
- GI50 [17]: > 100 µM (inactive)

From ChEMBL document CHEMBL1201862, “PubChem BioAssay data set” (2004)
